Measurements as given in patent US20050014810A1, “Use of substituted 2 phenylbenzimidazoles as medicaments” (Boehringer Ingelheim International GmbH, priority 2003, published 2005).
Counter-ions that a name gives are not always drawn.

SMILES	melting point
CC(C)c1ccc2c(c1)CC[C@H]1[C@](C)(Cn3c(-c4cccc(NC(=O)C(=O)O)c4)nc4cc(-c5ccccc5)ccc43)CCC[C@]21C	235 °C
CC(C)c1ccc2c(c1)CC[C@H]1[C@](C)(Cn3c(-c4ccc(CCC(=O)O)cc4)nc4cc(-c5ccccc5)ccc43)CCC[C@]21C	298 to 300 °C
CC(C)c1ccc2c(c1)CC[C@H]1[C@](C)(Cn3c(-c4cccc(N5CCC(C(=O)O)CC5)c4)nc4cc(-c5ccccc5)ccc43)CCC[C@]21C	166 to 178 °C
CC(C)c1ccc2c(c1)CC[C@H]1[C@](C)(Cn3c(-c4cccc(NCC(=O)O)c4)nc4cc(-c5ccccc5)ccc43)CCC[C@]21C	180 °C
CC(C)c1ccc2c(c1)CC[C@H]1[C@](C)(Cn3c(-c4cccc(NC(=O)CC(=O)O)c4)nc4cc(-c5ccccc5)ccc43)CCC[C@]21C	210 to 215 °C
COc1cc(OCCCC(=O)O)ccc1-c1nc2cc(/C=C/c3ccccc3)ccc2n1C[C@]1(C)CCC[C@]2(C)c3ccc(C(C)C)cc3CC[C@@H]12	59 to 72 °C
CC(C)c1ccc2c(c1)CC[C@H]1[C@](C)(Cn3c(-c4cccc(OCC(=O)O)c4)nc4cc(-c5cccc([NH+]([O-])O)c5)ccc43)CCC[C@]21C (stereo partly shown)	258 to 262 °C
CC(C)c1ccc2c(c1)CC[C@H]1[C@](C)(Cn3c(-c4cccc(OCC(=O)O)c4)nc4cc(-c5cccc(O)c5)ccc43)CCC[C@]21C	238 to 242 °C

More lines, now with the values ahead:

melting point	SMILES
175 °C (dec.)	CC(=O)Nc1cccc(-c2ccc3c(c2)nc(-c2cccc(OCC(=O)O)c2)n3C[C@]2(C)CCC[C@]3(C)c4ccc(C(C)C)cc4CC[C@@H]23)c1
166 °C (dec.)	CC(C)c1ccc2c(c1)CC[C@H]1[C@](C)(Cn3c(-c4cccc(OCC(=O)O)c4)nc4cc(-c5cccc(NS(C)(=O)=O)c5)ccc43)CCC[C@]21C
144 to 151 °C	CC(C)c1ccc2c(c1)CC[C@H]1[C@](C)(Cn3c(-c4cccc(OCCCC(=O)O)c4)nc4cc(-c5ccccc5)ccc43)CCC[C@]21C
> 295 °C (dec.)	CC(C)c1ccc2c(c1)CC[C@H]1[C@](C)(Cn3c(-c4cc(OCC(=O)O)ccc4N)nc4cc(-c5ccccc5)ccc43)CCC[C@]21C
179 °C	CC(=O)Nc1ccc(OCC(=O)O)cc1-c1nc2cc(-c3ccccc3)ccc2n1C[C@]1(C)CCC[C@]2(C)c3ccc(C(C)C)cc3CC[C@@H]12
168 to 172 °C	CC(C)c1ccc2c(c1)CC[C@H]1[C@](C)(Cn3c(-c4cc(OCC(=O)O)ccc4NC(=O)C(F)(F)F)nc4cc(-c5ccccc5)ccc43)CCC[C@]21C
200 °C	CC(C)c1ccc2c(c1)CC[C@H]1[C@](C)(Cn3c(-c4cccc(NC(=O)Cc5nnn[nH]5)c4)nc4cc(-c5ccccc5)ccc43)CCC[C@]21C
185 °C	COc1cc(OCCCC(=O)O)ccc1-c1nc2cc(-c3cccc(C#N)c3)ccc2n1C[C@]1(C)CCC[C@]2(C)c3ccc(C(C)C)cc3CC[C@@H]12
186 to 190 °C	CC(C)c1ccc2c(c1)CC[C@H]1[C@](C)(Cn3c(-c4cccc(OCC(=O)O)c4)nc4cc(-c5ccccc5N)ccc43)CCC[C@]21C
133 °C (dec.)	CC(C)c1ccc2c(c1)CC[C@H]1[C@](C)(Cn3c(-c4cccc(OCC(=O)O)c4)nc4cc(-c5cccc(CN6CCOCC6)c5)ccc43)CCC[C@]21C (as salt: trifluoroacetate)
127 °C	CC(C)c1ccc2c(c1)CC[C@H]1[C@](C)(Cn3c(-c4cccc(OCC(=O)O)c4)nc4cc(-c5cccc(CN(C)C)c5)ccc43)CCC[C@]21C (as salt: trifluoroacetate)
